Values of other authors in patent publication US20120027718A1, “COMBINATION THERAPY WITH GLATIRAMER ACETATE AND RASAGILINE FOR THE TREATMENT OF MULTIPLE SCLEROSIS” (Teva Pharmaceutical Industries, Ltd., priority 2005, published 2012).

Experiments:
stroke models = conditions: in vivo
[1] = system: models of traumatic head injury; conditions: in vivo

Compound	relapse rates, progression of disability, appearance of new lesions by MRI and appearance of black holes (multiple sclerosis (MS); daily subcutaneous injections, 20 mg/injection)	efficacy in treating multiple sclerosis (multiple sclerosis (MS); human, in vivo)	efficacy in stroke models (stroke models)	efficacy in models of traumatic head injury [1]
L-glutamic acid polymer with L-alanine, L-lysine and L-tyrosine, acetate (salt) [Glatiramer acetate]	reduce	effective	–	–
C#CCN[C@@H]1CCc2ccccc21 [Rasagiline, R(+)-N-propargyl-1-aminoindan]	–	–	effective	effective
